Experimental data from patent publication US5374733A, “Sweetening agent derived from L-aspartic or L-glutamic acid” (priority 1989, dated 1994).

Assays:
[1] = Sweetening potency: taste comparison by a team of eight experienced people with a sucrose reference solution; conditions: Table 3; weight basis, compared with a 2% aqueous solution of sucrose
Experimental: The sweetening potency of the compounds described in the Examples was evaluated by a team of eight experienced people. This is done by comparing the taste of the compounds, in aqueous solution at variable concentrations, with a 2%, 5 % or 10 % reference solution of sucrose. The sweetening potency of the test compound compared with sucrose then corresponds to the weight ratio between the compound and sucrose for equal sweetening intensity, i.e. when the sweet tastes of the solution of the test compound and the reference solution of sucrose are considered, by a majority of people, to have the same sweetening intensity.
Summary Table 3 below gives, by way of examples, a list of a few compounds obtained by experimental protocols similar to those described above, which those skilled in the art will easily find, together with their relative sweetening potency (SP), evaluated on a weight basis, compared with a 2% aqueous solution of sucrose. When the groups R1, R2 and R3 are different, the configuration of the asymmetric carbon to which they are bonded (carbon marked with an asterisk) is designated according to the conventional rules of stereochemistry using the R/S system: R, S or, when both configurations coexist in the same compound, RS.

[2] = Table 2, EP-A-0.338.946; sucrose concentration not stated; cited from earlier work

SMILES	SP (relative sweetening potency) [1]	SP [2]
CCCCCC(C)C(=O)N[C@@H](CCC(=O)O)C(=O)Nc1ccc(C#N)cc1 (some centres unmarked) [CH3/H/CH3 (CH2)4/RS/2/CH/CH/CN]	1000	–
CC(C)CCN[C@@H](CCC(=O)O)C(=O)Nc1ccc(C#N)cc1 [(CH3)2 CHCH2 CH2/2/4-CN--C6 H4]	–	800
CCCCC(C)C(=O)N[C@@H](CC(=O)O)C(=O)Nc1ccc(C#N)cc1 (some centres unmarked) [CH3/H/CH3 (CH2)3/RS/1/CH/CH/CN]	1500	–
CCC[C@H](C)C(=O)N[C@@H](CCC(=O)O)C(=O)Nc1ccc(C#N)cc1 [CH3/H/CH3 (CH2)2/S/2/CH/CH/CN]	2800	–
CCC(C(=O)N[C@@H](CCC(=O)O)C(=O)Nc1ccc(C#N)cc1)c1ccccc1 (some centres unmarked) [C2 H5/H/C6 H5/RS/2/CH/CH/CN]	2700	–
CCCCCC(C)(C)C(=O)N[C@@H](CCC(=O)O)C(=O)Nc1ccc(C#N)nc1 [CH3/CH3/CH3 (CH2) 4/2/N/CH/CN]	3000	–
CO[C@@H](C(=O)N[C@@H](CCC(=O)O)C(=O)Nc1ccc(C#N)nc1)c1ccccc1 [CH3 O/H/C6 H5/R/2/N/CH/CN]	11000	–
CCCC[C@H](C)C(=O)N[C@@H](CCC(=O)O)C(=O)Nc1ccc(C(N)=O)cc1 [CH3/H/CH3 (CH2)3/S/2/CH/CH/CONH2]	700	–
C[C@@H](C(=O)N[C@@H](CCC(=O)O)C(=O)Nc1ccc(C#N)cc1)c1ccccc1 [CH3/H/C6 H5/R/2/CH/CH/CN]	1300	–
CCCO[C@@H](C)C(=O)N[C@@H](CCC(=O)O)C(=O)Nc1ccc(C#N)cc1 [CH3/H/CH3 (CH2)2 O/S/2/CH/CH/CN]	200	–
CC(OC1C(C)CCCC1C)C(=O)N[C@@H](CCC(=O)O)C(=O)Nc1ccc(C#N)cc1 (some centres unmarked) [CH3/H/(2,6-diMe)-c-C6 H9 O/RS/2/CH/CH/CN]	1000	–
C[C@H](C(=O)N[C@@H](CCC(=O)O)C(=O)Nc1ccc(C#N)nc1)c1ccccc1 [CH3/H/C6 H5/S/2/N/CH/CN]	4000	–
CCCCC(CC)C(=O)N[C@@H](CCC(=O)O)C(=O)Nc1ccc(C#N)cc1 (some centres unmarked) [C2 H5/H/CH3 (CH2)3/RS/2/CH/CH/CN]	5000	–
CCCCC(C)(C)C(=O)N[C@@H](CCC(=O)O)C(=O)Nc1ccc(C#N)cc1 [CH3/CH3/CH3 (CH2)3/2/CH/CH/CN]	11000	–
CC(Oc1ccccc1)C(=O)N[C@@H](CCC(=O)O)C(=O)Nc1ccc(C#N)cc1 (some centres unmarked) [CH3/H/C6 H5 O/RS/2/CH/CH/CN]	4000	–
N#Cc1ccc(NC(=O)[C@H](CCC(=O)O)NC(=O)C2(c3ccccc3)CCCC2)cn1 [CH2 (CH2)2 CH2/C6 H5/2/N/CH/CN]	3000	–
CCCC=CCN[C@@H](CCC(=O)O)C(=O)Nc1ccc(C#N)cc1 [CH3 (CH2)2 CH=CHCH2/2/4-CN--C6 H4]	–	3000
CCCC[C@@H](C)C(=O)N[C@@H](CCC(=O)O)C(=O)Nc1ccc(C#N)cc1 [CH3/H/CH3 (CH2)3/R/2/CH/CH/CN]	3000	–
N#Cc1ccc(NC(=O)[C@H](CC(=O)O)NC(=O)C2(c3ccccc3)CC2)cc1 [CH2 CH2/C6 H5/1/CH/CH/CN]	1000	–
CCCCC(OC)C(=O)N[C@@H](CCC(=O)O)C(=O)Nc1ccc(C#N)nc1 (some centres unmarked) [CH3 O/H/CH3 (CH2)3/RS/2/N/CH/CN]	2000	–
CCCC[C@H](C)C(=O)N[C@@H](CCC(=O)O)C(=O)Nc1ccc(C(C)=O)cc1 [CH3/H/CH3 (CH2)3/S/2/CH/CH/COCH3]	300	–

SMILES	SP (relative sweetening potency) [1]	SP [2]
C[C@@H](Oc1ccccc1)C(=O)N[C@@H](CC(=O)O)C(=O)Nc1ccc(C#N)cc1 [CH3/H/C6 H5 O/R/1/CH/CH/CN]	18000	–
CC(C)CCC(C)C(=O)N[C@@H](CCC(=O)O)C(=O)Nc1ccc(C#N)cc1 (some centres unmarked) [CH3/H/(CH3)2 CH(CH2)2/RS/2/CH/CH/CN]	6000	–
CO[C@H](C(=O)N[C@@H](CCC(=O)O)C(=O)Nc1ccc(C#N)nc1)c1ccccc1 [CH3 O/H/C6 H5/S/2/N/CH/CN]	3000	–
C[C@H](C(=O)N[C@@H](CCC(=O)O)C(=O)Nc1ccc(C#N)cc1)c1ccccc1 [CH3/H/C6 H5/S/2/CH/CH/CN]	1500	–
CCC[C@@H](C)C(=O)N[C@@H](CCC(=O)O)C(=O)Nc1ccc(C#N)cc1 [CH3/H/CH3 (CH2)2/R/2/CH/CH/CN]	500	–
N#Cc1ccc(NC(=O)[C@H](CCC(=O)O)NC(=O)C(c2ccccc2)c2ccccc2)cc1 [C6 H5/H/C6 H5/2/CH/CH/CN]	250	–
N#Cc1ccc(NC(=O)[C@H](CCC(=O)O)NC(=O)C(Cl)c2ccccc2)cc1 (some centres unmarked) [Cl/H/C6 H5/RS/2/CH/CH/CN]	2200	–
C=CCC(C)(C)C(=O)N[C@@H](CCC(=O)O)C(=O)Nc1ccc(C#N)cc1 [CH3/CH3/CH2 CHCH2/2/CH/CH/CN]	500	–
N#Cc1ccc(NC(=O)[C@H](CCC(=O)O)NC(=O)C2(c3ccccc3)CC2)cc1 [CH2 CH2/C6 H5/2/CH/CH/CN]	2500	–
CCCCC(C)(C)C(=O)N[C@@H](CCC(=O)O)C(=O)Nc1ccc(Cl)nc1 [CH3/CH3/CH3 (CH2)3/2/N/CH/Cl]	600	–
CC(C)CCC(C)(C)C(=O)N[C@@H](CCC(=O)O)C(=O)Nc1ccc(C#N)cc1 [CH3/CH3/(CH3)2 CH(CH2)2/2/CH/CH/CN]	10000	–
CCCC[C@H](C)C(=O)N[C@@H](CCC(=O)O)C(=O)Nc1cnc(C#N)nc1 [CH3/H/CH3 (CH2)3/S/2/N/N/CN]	10000	–
CO[C@](C(=O)N[C@@H](CCC(=O)O)C(=O)Nc1ccc(C#N)cc1)(c1ccccc1)C(F)(F)F [CF3/CH3 O/C6 H5/S/2/CH/CH/CN]	600	–
C[C@@H](C(=O)N[C@@H](CCC(=O)O)C(=O)Nc1ccc(C#N)nc1)c1ccccc1 [CH3/H/C6 H5/R/2/N/CH/CN]	2500	–
CC(C(=O)N[C@@H](CCC(=O)O)C(=O)Nc1ccc(C#N)cc1)C1CCCCC1 (some centres unmarked) [CH3/H/c-C6 H11/RS/2/CH/CH/CN]	1000	–
N#Cc1ccc(NC(=O)[C@H](CCC(=O)O)NC(=O)C2(c3ccccc3)CCCC2)cc1 [CH2 (CH2)2 CH2/C6 H5/2/CH/CH/CN]	2000	–
CCCC[C@@H](C)C(=O)N[C@@H](CCC(=O)O)C(=O)Nc1ccc(C#N)nc1 [CH3/H/CH3 (CH2)3/R/2/N/CH/CN]	2000	–
CC(Oc1ccccc1)C(=O)N[C@@H](CCC(=O)O)C(=O)Nc1ccc(C#N)nc1 (some centres unmarked) [CH3/H/C6 H5 O/RS/2/N/CH/CN]	13000	–
CCCO[C@H](C)C(=O)N[C@@H](CCC(=O)O)C(=O)Nc1ccc(C#N)cc1 [CH3/H/CH3 (CH2)2 O/R/2/CH/CH/CN]	400	–
COC(C(=O)N[C@@H](CCC(=O)O)C(=O)Nc1ccc(C#N)cc1)c1ccccc1 (some centres unmarked) [CH3 O/H/C6 H5/RS/2/CH/CH/CN]	2300	–
